≈ marks a conversion by molar mass, not a printed value. Read-outs that look alike come from different tables or passages of the source.
Tests used:
[1] = tested on: T. cruzi amastigote (Tulahuen strain expressing β-galactosidase); assay: Intracellular T. cruzi assay in 3T3 cells (beta-galactosidase, 96 h); assay type: cell-based, Trypanosoma cruzi; details: read-out: T. cruzi amastigote EC50
Method: In a 96-well plate, 5×10^4 3T3 cells in DMEM without phenol red supplemented with 2% FBS were added to each well. Cells were incubated for 2 h to allow for attachment. Compounds were added in triplicates at 50 μM and in serial dilutions 1:2. To each well, 5×10^4 T. cruzi trypomastigotes (Tulahuen strain expressing β-galactosidase) were added and incubated at 37°C, 5% CO2 for 96 h. Following incubation, 50 μL of 500 μM chlorophenol Red-β-D-galactopyranoside (CPRG) in phosphate-buffered saline with 0.5% NP40 was added to each well and incubated at 37°C, 5% CO2 for 4 h. Absorbance was read at 590–595 nm.

L. major amastigote = assay: L. major intracellular amastigote luciferase assay in RAW 264.7 macrophages; assay type: cell-based, Leishmania major; details: intracellular amastigotes in RAW 264.7 macrophages, 96 h
Method: Amastigote assays were performed using pLEXSY-hyg2-luciferase L. major transfected promastigotes and the murine RAW 264.7 macrophage cell line (ATCC TIB-71, Manassas, VA). Briefly, luciferase-expressing promastigotes of each Leishmania species were generated by adding a luciferase encoding region to the pLEXSY-hyg2 vector (Jena Biosciences, Germany) as described. One μg of the linearized pLEXSY-hyg2-luciferase vector were electroporated (480 V, 13 Ω, and 500 μF) into 4×10^7 Leishmania promastigotes. Selection for stable promastigote transfectants was carried out using hygromycin B (100 μg/mL). RAW 264.7 macrophages were maintained in growth medium (Dulbecco’s Modified Eagle’s Medium supplemented with heat-inactivated 10% FBS (Life Technologies)). Cells were harvested and resuspended in growth medium at 2.0×10^5 cells/mL, and 1×10^4 cells/well were dispensed (final volume 50 μL) in each well of a 384 well tissue-culture treated white plate using a EVO Freedom liquid handling system (Tecan, Durham, NC). Plates were incubated at 37°C in 5% CO2 for 24 h after which the culture medium was removed from each well using the EVO Freedom liquid handler. Metacyclic phase pLEXSY-hyg2-luciferase-Leishmania promastigotes (MOI = 1:10 L. major) were added to each assay plate well and allowed to infect the RAW 264.7 macrophages. After an overnight incubation, the growth medium was aspirated and each well was washed three times with 40 μL of fresh growth medium to remove non-internalized promastigotes. After the third wash, 69.2 μL of growth medium was added to each well. Compound dilutions (final concentration ranges 0.5–10,000 ng/mL) were generated and dispensed using the liquid handling system. Compound treated plates were incubated at 37°C in 5% CO2 for 96 h. After incubation, 7.5 μL of a luciferin solution (Caliper Life Science, Waltham, MA) diluted to 150 μg/mL was added to each well, and the plates were incubated for 30 min at 37°C in the dark. Data were captured using an Infinite M200 plate reader (Tecan). EC50s were generated for each concentration response test using GraphPad Prism software 6.0.

Aqueous solubility = assay type: physicochemical
LogD7.4 = assay type: physicochemical; details: pH 7.4
[2] = tested on: T. b. brucei (strain 427); assay: T. b. brucei proliferation assay (PrestoBlue, 48 h); assay type: cell-based, Trypanosoma brucei brucei
Method: The assay was performed following a previously reported procedure. Briefly, in a 96-well plate, compounds were added in triplicates at 50 μM and in serial dilutions 1:2 in HMI-9 medium. To each well, 100 μL of 2.5×10^3 T. b. brucei (strain 427, received as a gift from Dr. C. C. Wang at UCSF) in HMI-9 medium was were added and incubated at 37°C, 5% CO2 for 48 h. Following incubation, 20 μL of PrestoBlue were added to each well and incubated for additional 4 h. Fluorescence was read at 530 nm excitation and 590 nm emission.

[3] = Human plasma protein binding; assay type: in vitro ADME; details: for fraction unbound: read-out: Human PPB (converted)
[4] = Human liver microsome intrinsic clearance; assay type: in vitro ADME; details: for microsomal CLint: liver microsomes
[5] = Rat hepatocyte intrinsic clearance; assay type: in vitro ADME; details: for hepatocyte CLint: hepatocytes
HepG2 cells = assay: Drug toxicity to HepG2 cells (MTT, 48 h); assay type: cell-based, human; details: tested concentration ranges based on compound solubility
Method: HepG2 cells were cultured in complete Minimal Essential Medium prepared by supplementing MEM with 0.19% sodium bicarbonate, 10% heat inactivated FBS, 2 mM L-glutamine, 0.1 mM MEM non-essential amino, 0.009 mg/mL insulin, 1.76 mg/mL bovine serum albumin, 20 units/mL penicillin–streptomycin, and 0.05 mg/mL gentamycin. HepG2 cells cultured in complete MEM were first washed with 1× Hank’s Balanced Salt Solution (Invitrogen #14175095), trypsinized using a 0.25% trypsin/EDTA solution, assessed for viability using trypan blue, and resuspended at 250,000 cells/mL. Using a Tecan EVO Freedom robot, 38.3 μL of cell suspension were added to each well of clear, cell culture-treated 384-well microtiter plates for a final concentration of 9570 liver cells per well, and plated cells were incubated overnight in 5% CO2 at 37°C. Drug plates were prepared with the Tecan EVO Freedom using sterile 96 well plates containing twelve duplicate 1.6-fold serial dilutions of each test compound suspended in DMSO. 4.25 μL of diluted test compound was then added to the 38.3 μL of media in each well providing a […] final dilution of compound. Compounds were tested from a range of 57 ng/mL to 10,000 ng/mL for all assays. Mefloquine was used as a plate control for all assays with a concentration ranging from 113 ng/mL to 20,000 ng/mL. After a 48 h incubation period, 8 μL of a 1.5 mg/mL solution of MTT diluted in complete MEM media was added to each well. All plates were subsequently incubated in the dark for 1 h at room temperature. After incubation, the media and drugs in each well was removed by shaking the plate over sink, and the plates were left to dry in a fume hood for 15 mins. Next, 30 μL of isopropanol acidified by addition of HCl at a final concentration of 0.36% was added to dissolve the formazan dye crystals created by reduction of MTT. Plates are put on a 3-D rotator for 15–30 mins. Absorbance was determined in all wells using a Tecan iControl 1.6 Infinite plate reader.

[6] = Trypanosoma cruzi, TULAHUEN, NIH3T3, 96 h
[7] = intracellular in 3T3 cells, 96 h

Row | Structure (SMILES) | EC50 [1, 6] | EC50 (L. major amastigote; Leishmania major, RAW264.7) | solubility (Aqueous solubility) | logD (LogD7.4) | EC50 ([2]; Trypanosoma brucei) | fraction unbound [3] | microsomal CLint [4] | hepatocyte CLint [5] | further results
1 | C[C@@H]1[C@H](O)[C@@H](C)/C=C/C=C/C=C/C=C/C=C/C=C/C=C/[C@H](O[C@@H]2O[C@H](C)[C@@H](O)[C@H](N)[C@@H]2O)C[C@@H]2O[C@](O)(C[C@@H](O)C[C@@H](O)[C@H](O)CC[C@@H](O)C[C@@H](O)CC(=O)O[C@H]1C)C[C@H](O)[C@H]2C(=O)O [Amphotericin B, reference compound] | 0.48 µM | 0.036 µM |  |  |  |  |  |  | 
2 | COc1ncc(Nc2ccnc3cc(-c4ccc(S(=O)(=O)N5CCN(C)CC5)cc4)ccc23)cn1 [Compound 2] | > 50 µM | 3.1 µM | 7.3 µM (≈ 3.58 µg/mL) | 3.1 | 2.5 µM | 0.12 |  |  | 
3 | COc1cnc(Nc2ccnc3cc(-c4ccc(S(=O)(=O)N5CCN(C)CC5)cc4)ccc23)cn1 [Compound 3] | 9.7 µM | 19 µM | 3.2 µM (≈ 1.57 µg/mL) | 4.2 | 0.62 µM | 0.03 |  |  | 
4 | CN1CCN(S(=O)(=O)c2ccc(-c3ccc4c(Nc5cnccn5)ccnc4c3)cc2)CC1 [Compound 4] | 16 µM | 20 µM | 4.2 µM (≈ 1.93 µg/mL) | 3.2 | 0.91 µM | 0.06 |  |  | 
5 | CN1CCN(S(=O)(=O)c2ccc(-c3ccc4c(Nc5ccc(Cl)cn5)ccnc4c3)cc2)CC1 [Compound 5] | 2.8 µM | 2.1 µM | < 1 µM |  | 0.27 µM | < 0.01 |  |  | 
6 | CN1CCN(S(=O)(=O)c2ccc(-c3ccc4c(Nc5cccc(Cl)c5)ccnc4c3)cc2)CC1 [Compound 7] | > 50 µM | 3.4 µM |  |  | > 50 µM | < 0.01 | 150 µL/min/mg | 15 µL/min/1e6 cells | 
7 | Cc1ccc(Nc2ccnc3cc(-c4ccc(S(=O)(=O)N5CCN(C)CC5)cc4)ccc23)cc1Cl [Compound 8] | > 50 µM | 2.4 µM |  |  | 0.65 µM |  | 290 µL/min/mg |  | 
8 | COc1ccc(Nc2ccnc3cc(-c4ccc(S(=O)(=O)N5CCN(C)CC5)cc4)ccc23)cc1 [Compound 9] | 1.9 µM | 4.4 µM | 9 µM (≈ 4.4 µg/mL) | 4.2 | 0.52 µM |  | 350 µL/min/mg | 58 µL/min/1e6 cells | 
9 | CN1CCN(S(=O)(=O)c2ccc(-c3ccc4c(Nc5ccc(OC(F)(F)F)cc5)ccnc4c3)cc2)CC1 [Compound 10] | 1.4 µM | 0.78 µM |  | 4.5 | 0.27 µM | < 0.01 | 280 µL/min/mg | 79 µL/min/1e6 cells | 
10 | Cc1ccc(Nc2ccnc3cc(-c4ccc(S(=O)(=O)N5CCN(C)CC5)cc4)ccc23)cn1 [Compound 11] | 9.9 µM | 3.9 µM |  | 3.7 | 0.69 µM | 0.08 | 400 µL/min/mg | 49 µL/min/1e6 cells | 
11 | CN1CCN(S(=O)(=O)c2ccc(-c3ccc4c(Nc5ccc(C(F)(F)F)nc5)ccnc4c3)cc2)CC1 [Compound 12] | 5.4 µM | 6.2 µM |  | 4.4 | 0.7 µM | 0.02 | 390 µL/min/mg | 260 µL/min/1e6 cells | 
12 | CN1CCN(S(=O)(=O)c2cccc(-c3ccc4c(Nc5ccc(OCc6cccc(F)c6)c(Cl)c5)ccnc4c3)c2)CC1 [Compound 13] | > 50 µM | 0.2 µM | < 1 µM | 4.8 | 0.48 µM | < 0.01 | 110 µL/min/mg | 24 µL/min/1e6 cells | 
13 | CN1CCN(c2ccc(Nc3ccc4c(Nc5ccc(OCc6cccc(F)c6)c(Cl)c5)ccnc4c3)cc2)CC1 [Compound 17] | 2.1 µM | 1.2 µM |  |  | 0.12 µM |  |  |  | 
14 | CN1CCN(c2ncc(Nc3ccc4c(Nc5ccc(OCc6cccc(F)c6)c(Cl)c5)ccnc4c3)cn2)CC1 [Compound 18] | 2.7 µM | 0.87 µM |  |  | 0.16 µM |  |  |  | 
15 | CN1CCN(c2ccnc(Nc3ccc4c(Nc5ccc(OCc6cccc(F)c6)c(Cl)c5)ccnc4c3)n2)CC1 [Compound 19] | 2.7 µM | 2.5 µM | 1 µM (≈ 0.57 µg/mL) | 4.7 | 0.12 µM |  | 21 µL/min/mg | 4.6 µL/min/1e6 cells | 
16 | CN1CCN(c2nccc(Nc3ccc4c(Nc5ccc(OCc6cccc(F)c6)c(Cl)c5)ccnc4c3)n2)CC1 [Compound 20] | 4.3 µM | 1.2 µM |  |  | 0.098 µM |  |  |  | 
17 | COc1ccc(Nc2ccnc3cc(-c4cn[nH]c4)ccc23)cc1Cl [NEU-2087] |  |  | 2 µM (≈ 0.702 µg/mL) |  |  |  |  |  | EC50 [1, 7]: > 50 µM; LogD7.4 (LogD7.4): 3.5; EC50 [2]: 0.91 µM; EC50 (L. major amastigote): 29 µM; HepG2 TC50 (HepG2 cells): 23 µM; Human PPB [3]: 97%; Human Liver Microsome CLint [4]: 8 µL/min/mg; Rat Hepatocyte CLint [5]: 5 μL/min/10^6 cells
18 | c1cnc(Nc2ccnc3cc(-c4cn[nH]c4)ccc23)cn1 [NEU-2088] |  |  | 1 µM (≈ 0.288 µg/mL) |  |  |  |  |  | EC50 [1, 7]: > 50 µM; LogD7.4 (LogD7.4): 2.6; EC50 [2]: 0.29 µM; EC50 (L. major amastigote): 3 µM; HepG2 TC50 (HepG2 cells): 4.5 µM; Human Liver Microsome CLint [4]: 130 µL/min/mg; Rat Hepatocyte CLint [5]: 5 μL/min/10^6 cells
19 | COc1ccc(Nc2ccnc3cc(Nc4nccc(N5CCN(C)CC5)n4)ccc23)cc1Cl [NEU-2090] |  |  | 570 µM (≈ 271 µg/mL) |  |  |  |  |  | EC50 [1, 7]: > 20 µM; LogD7.4 (LogD7.4): 3.3; EC50 [2]: 0.35 µM; EC50 (L. major amastigote): 2.3 µM; HepG2 TC50 (HepG2 cells): 7.6 µM; Human PPB [3]: 99%; Rat Hepatocyte CLint [5]: 7.2 μL/min/10^6 cells
20 | CN1CCN(c2ccnc(Nc3ccc4c(Nc5cnccn5)ccnc4c3)n2)CC1 [NEU-2091] |  |  |  |  |  |  |  |  | EC50 [1, 7]: > 20 µM; LogD7.4 (LogD7.4): 2.8; Rat Hepatocyte CLint [5]: 9.3 μL/min/10^6 cells
21 | CN1CCN(c2nccc(Nc3ccc4c(Nc5cnccn5)ccnc4c3)n2)CC1 [NEU-2094] |  |  |  |  |  |  |  |  | EC50 [1, 7]: > 50 µM; LogD7.4 (LogD7.4): 2.9
22 | CN1CCN(c2ccc(Nc3ccc4c(Nc5cnccn5)ccnc4c3)cc2)CC1 [NEU-2096] |  |  |  |  |  |  |  |  | LogD7.4 (LogD7.4): 2.2; EC50 (L. major amastigote): 7.9 µM; Human PPB [3]: 88%; Rat Hepatocyte CLint [5]: 10 μL/min/10^6 cells
